These results are taken from patent publication US12528802B2, “Heterocyclic compound” (Takeda Pharmaceutical Company Limited, priority 2019, dated 2026).

Structures are written as SMILES.

The target of one assay is T1, glucosylceramide synthase (Homo sapiens, UniProt Q16739).
T1 construct: made in house; host or cells: Expi293F cells (transient expression, pcDNA3.3-TOPO vector); microsome fraction used as enzyme source
T1 sequence (Q16739 1-394): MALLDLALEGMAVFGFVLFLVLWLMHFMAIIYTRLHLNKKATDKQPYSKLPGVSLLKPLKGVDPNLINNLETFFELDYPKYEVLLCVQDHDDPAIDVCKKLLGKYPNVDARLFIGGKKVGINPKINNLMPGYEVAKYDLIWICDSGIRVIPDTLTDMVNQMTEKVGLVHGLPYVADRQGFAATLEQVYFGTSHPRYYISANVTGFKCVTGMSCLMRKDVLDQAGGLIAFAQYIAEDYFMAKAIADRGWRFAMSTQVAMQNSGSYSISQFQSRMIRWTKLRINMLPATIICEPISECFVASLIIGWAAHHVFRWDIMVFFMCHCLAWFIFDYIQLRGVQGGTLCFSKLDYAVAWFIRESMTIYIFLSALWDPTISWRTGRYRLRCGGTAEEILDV
Kind of assay: Glucosylceramide synthase (GCS) enzyme assay, microsome fraction, C8 glucosylceramide quantified by Rapidfire MS/MS. In kind it is biochemical. As to conditions: test compound 10 μM; 1.7 μM UDP-glucose, 3 μM C8 ceramide; room temperature 60 min. The protocol:
Glucosylceramide Synthase (GCS) Assay
In enzyme assay, a microsome fraction obtained by transient expression by Expi293F™ cells (catalog number: A14527, Thermo Fisher Scientific) was used as a glucosylceramide synthase source. Liposomal C8 ceramide and UDP-glucose were used as substrates. […] After the enzymatic reaction, the analysis was performed with Rapidfire MS/MS (API-4000™, SCIEX), and C8 glucosylceramide was quantified to evaluate the inhibitory activity of the test compound against glucosylceramide synthase activity.
PcDNA3.3TOPO vector (catalog number: K830001, Thermo Fisher Scientific) into which the human GCS gene was inserted was introduced into Expi293F™ Cells (catalog number: A14527, Thermo Fisher Scientific) by using ExpiFectamine™ 293 Transfection Kit (catalog number: A14525, Thermo Fisher Scientific). The cultured cells were dissolved in D-PBS (catalog number: 048-29805, Fuji Film Wako Pure Chemical Industries, Ltd.) containing 1 mM PMSF, and the solution was allowed to stand on ice for 30 minutes, and then subjected to cell disruption (homogenized). The disruption solution was centrifuged at 10,000×g for 20 minutes at 4° C., and the obtained supernatant was centrifuged at 142,400×g for 60 minutes at 4° C. The obtained precipitate was resuspended in a D-PBS solution containing 1 mM PMSF, and homogenized again to prepare as a microsome fraction. Protein quantification was performed by the CBB method.
A 1 mM compound solution prepared by dissolving the test compound in DMSO was added to a 384-well plate by 100 nL so that the final concentration of the test compound was 10 μM. Next, a substrate solution consisting of 3.4 μM UDP-glucose and 6 μM C8 ceramide was added by 5 μL, followed by an enzyme solution consisting of a 25 μg/mL microsome fraction by 5 μL. C8 ceramide was prepared from liposomes composed of 15 mol % C8 ceramide and 85 mol % dioleoyl phosphatidylcholine (1,2-dioleoyl-sn-glycero-3-phosphocholine: DOPC). The enzymatic reaction was carried out in a solution consisting of 20 mM tris-hydrochloric acid buffer (pH 7.5), 0.01% Tween 20, 0.01% bovine serum albumin and 1 mM dithiothreitol at room temperature for 60 min. Then, a solution consisting of 75% isopropanol and 1% formic acid containing 0.25 μM N-Octadecanoyl-D35-psichosine (catalog number: 1914, Matreya) as an internal standard substance was added by 60 μL to stop the enzymatic reaction. 5 μL of the centrifugal supernatant of the obtained reaction product was analyzed by Rapidfire MS/MS (Agilent Technologies) using API-4000™ (SCIEX), and the C8 glucosylceramide was quantified to evaluate the inhibitory activity of the test compound against the glucosylceramide synthase activity. The inhibitory activity of the test compound was evaluated when the C8 glucosylceramide level in the enzyme-free solution was considered as 100% inhibitory and the enzyme activity of the DMSO group in the absence of the compound was considered as 0% inhibitory.
For `O=C1c2ccnc(-c3ccc(F)cc3OCC(F)(F)F)c2CN1c1ccc(C2(O)CCOC2)cc1` (single isomer, unassigned) [Example 263, (R or S)-4-[4-fluoro-2-(2,2,2-trifluoroethoxy)phenyl]-2-[4-(3-hydroxyoxolan-3-yl)phenyl]-2,3-dihydro-1H-pyrrolo[3,4-c]pyridin-1-one], the “GCS enzyme inhibitory rate at 10 μM (%) (% of control)” value stood at 98%.
Consider `O=C1c2ccnc(-c3ccc(F)cc3OCC(F)(F)F)c2CN1c1ccc(C2(O)CCOC2)cc1` (single isomer, unassigned) [Example 264, (R or S)-4-[4-fluoro-2-(2,2,2-trifluoroethoxy)phenyl]-2-[4-(3-hydroxyoxolan-3-yl)phenyl]-2,3-dihydro-1H-pyrrolo[3,4-c]pyridin-1-one], for which the “GCS enzyme inhibitory rate at 10 μM (%) (% of control)” value is on record as 98%.
As to `O=C1c2ccnc(-c3ccccc3OCC(F)(F)F)c2CN1c1ccc(C(O)C(F)(F)F)nc1` (single isomer, unassigned) [Example 277, (R or S)-4-[2-(2,2,2-trifluoroethoxy)phenyl]-2-[6-(2,2,2-trifluoro-1-hydroxyethyl)pyridin-3-yl]-2,3-dihydro-1H-pyrrolo[3,4-c]pyridin-1-one], the “GCS enzyme inhibitory rate at 10 μM (%) (% of control)” value came to 98%.
Turning to `O=C1c2ccnc(-c3ccc(F)cc3OCC(F)(F)F)c2CN1c1ccc(C(O)C(F)F)cc1` (single isomer, unassigned) [Example 279, (R or S)-2-[4-(2,2-difluoro-1-hydroxyethyl)phenyl]-4-[4-fluoro-2-(2,2,2-trifluoroethoxy)phenyl]-2,3-dihydro-1H-pyrrolo[3,4-c]pyridin-1-one], the “GCS enzyme inhibitory rate at 10 μM (%) (% of control)” value is 99%.
Regarding `O=C1c2ccnc(-c3ccc(F)cc3OCC(F)(F)F)c2CN1c1ccc(C(O)C(F)(F)F)cc1` (single isomer, unassigned) [Example 286, (R or S)-4-[4-fluoro-2-(2,2,2-trifluoroethoxy)phenyl]-2-[4-(2,2,2-trifluoro-1-hydroxyethyl)phenyl]-2,3-dihydro-1H-pyrrolo [3,4-c]pyridin-1-one], the “GCS enzyme inhibitory rate at 10 μM (%) (% of control)” value was found to be 96%.
For the compound `O=C1c2ccnc(-c3ccc(F)cc3OCC(F)(F)F)c2CN1c1ccc(C2(O)CCOC2)cn1` (single isomer, unassigned) [Example 301, (R or S)-4-[4-fluoro-2-(2,2,2-trifluoroethoxy)phenyl]-2-[5-(3-hydroxyoxolan-3-yl)pyridin-2-yl]-2,3-dihydro-1H-pyrrolo [3,4-c]pyridin-1-one], the “GCS enzyme inhibitory rate at 10 μM (%) (% of control)” value is listed as 97%.

The assay is the same for the next values; noted with them: test compound 10 μM; 1.7 μM UDP-glucose, 3 μM C8 ceramide; room temperature 60 min; read-out: GCS enzyme inhibitory rate at 10 μM (%) (% of control).
With `CC(O)c1cc2c(c(-c3ccccc3OCC(F)F)n1)CN(c1ccc(OC(F)F)cc1)C2=O` (racemic) [Example 358, rac-4-[2-(2,2-difluoroethoxy)phenyl]-2-[4-(difluoromethoxy)phenyl]-6-(1-hydroxyethyl)-2,3-dihydro-1H-pyrrolo[3,4-c]pyridin-1-one], the inhibition at 10 µM stood at 100%.
Still for that read-out and setting: to `Cc1cc2c(c(-c3ccccc3OCC(F)(F)F)n1)CN(c1ccc(OCC3(OC4CCCCO4)CC3)cc1)C2=O` (racemic) [Example 374, rac-6-methyl-2-[4-({1-[(oxan-2-yl)oxy]cyclopropyl}methoxy)phenyl]-4-[2-(2,2,2-trifluoroethoxy)phenyl]-2,3-dihydro-1H-pyrrolo[3,4-c]pyridin-1-one] belongs 100%.
For the compound `O=C1c2cc(C3CCCOC3)nc(-c3ccc(F)cc3OCC(F)(F)F)c2CN1c1ccc(F)cc1` (racemic) [Example 386, rac-2-(4-fluorophenyl)-4-[4-fluoro-2-(2,2,2-trifluoroethoxy)phenyl]-6-(oxan-3-yl)-2,3-dihydro-1H-pyrrolo[3,4-c]pyridin-1-one], the inhibition at 10 µM was 99%.
`CC(C)(O)c1ccc(N2Cc3c(cc(C4CCCOC4)nc3-c3ccccc3OCC(F)(F)F)C2=O)cc1` (racemic) [Example 387, rac-2-[4-(2-hydroxypropan-2-yl)phenyl]-6-(oxan-3-yl)-4-[2-(2,2,2-trifluoroethoxy)phenyl]-2,3-dihydro-1H-pyrrolo[3,4-c]pyridin-1-one]: the inhibition at 10 µM came to 101%.
On to `CC(C)(O)c1ccc(N2Cc3c(cc(C4CCOC4)nc3-c3ccccc3OCC(F)F)C2=O)cc1` (racemic) [Example 390, rac-4-[2-(2,2-difluoroethoxy)phenyl]-2-[4-(2-hydroxypropan-2-yl)phenyl]-6-(oxolan-3-yl)-2,3-dihydro-1H-pyrrolo[3,4-c]pyridin-1-one], for which the inhibition at 10 µM was found to be 77%.
The same measure, in the same setting: to `O=C1c2ccnc(-c3ccc(F)cc3OCC(F)(F)F)c2CN1c1ccc(C2(O)CCOC2)cc1` (single isomer, unassigned) [Example 243, (R or S)-4-[4-fluoro-2-(2,2,2-trifluoroethoxy)phenyl]-2-[4-(3-hydroxyoxolan-3-yl)phenyl]-2,3-dihydro-1H-pyrrolo[3,4-c]pyridin-1-one] belongs 97%; to `O=C1c2ccnc(-c3ccccc3OCC(F)(F)F)c2CN1c1ccc(C(O)C(F)(F)F)nc1` (single isomer, unassigned) [Example 276, (R or S)-4-[2-(2,2,2-trifluoroethoxy)phenyl]-2-[6-(2,2,2-trifluoro-1-hydroxyethyl)pyridin-3-yl]-2,3-dihydro-1H-pyrrolo[3,4-c]pyridin-1-one], 98%; to `O=C1c2ccnc(-c3ccc(F)cc3OCC(F)(F)F)c2CN1c1ccc(C(O)C(F)F)cc1` (single isomer, unassigned) [Example 278, (R or S)-2-[4-(2,2-difluoro-1-hydroxyethyl)phenyl]-4-[4-fluoro-2-(2,2,2-trifluoroethoxy)phenyl]-2,3-dihydro-1H-pyrrolo[3,4-c]pyridin-1-one], 99%.
As to `O=C1c2ccnc(-c3ccc(F)cc3OCC(F)(F)F)c2CN1c1ccc(C(O)C(F)(F)F)cc1` (single isomer, unassigned) [Example 285, (R or S)-4-[4-fluoro-2-(2,2,2-trifluoroethoxy)phenyl]-2-[4-(2,2,2-trifluoro-1-hydroxyethyl)phenyl]-2,3-dihydro-1H-pyrrolo [3,4-c]pyridin-1-one], the inhibition at 10 µM was found to be 97%.
With `O=C1c2ccnc(-c3ccc(F)cc3OCC(F)(F)F)c2CN1c1ccc(C2(O)CCOC2)cn1` (single isomer, unassigned) [Example 300, (R or S)-4-[4-fluoro-2-(2,2,2-trifluoroethoxy)phenyl]-2-[5-(3-hydroxyoxolan-3-yl)pyridin-2-yl]-2,3-dihydro-1H-pyrrolo [3,4-c]pyridin-1-one], the inhibition at 10 µM amounted to 98%.
Consider `CC(O)(c1ccc(N2Cc3c(ccnc3-c3ccc(F)cc3OCC(F)(F)F)C2=O)cc1)C(F)F` (single isomer, unassigned) [Example 311, (R or S)-2-[4-(1,1-difluoro-2-hydroxypropan-2-yl)phenyl]-4-[4-fluoro-2-(2,2,2-trifluoroethoxy)phenyl]-2,3-dihydro-1H-pyrrolo[3,4-c]pyridin-1-one], for which the inhibition at 10 µM was found to be 100%.
On to `CC(O)(c1ccc(N2Cc3c(ccnc3-c3ccccc3OCC(F)(F)F)C2=O)cc1)C(F)F` (single isomer, unassigned) [Example 315, (R or S)-2-[4-(1,1-difluoro-2-hydroxypropan-2-yl)phenyl]-4-[2-(2,2,2-trifluoroethoxy)phenyl]-2,3-dihydro-1H-pyrrolo[3,4-c]pyridin-1-one], for which the inhibition at 10 µM is 100%.
As to `COc1ccccc1-c1nccc2c1CN(c1ccc(F)cc1)C2=O` [Example 1, 2-(4-fluorophenyl)-4-(2-methoxyphenyl)-2,3-dihydro-1H-pyrrolo[3,4-c]pyridin-1-one], the inhibition at 10 µM worked out at 78%.
